From patent EP3095787A1, “[…] ACTIVE COMPOUNDS AS DAG-LIPASE INHIBITORS” (Universiteit Leiden, priority 2015, dated 2016) come the findings set out here.

Each structure is given as a SMILES string. Entries after “also recorded” stand apart in the source; their conditions may differ.

One assay relates to CA1 pyramidal neurons. Description: Depolarization-induced suppression of inhibition (DSI) in hippocampal slices, whole-cell voltage clamp. It is filed as cell-based. To be noted: 10 µM bath application, pre-incubated at least 30 min; mouse hippocampal slices. An excerpt:
Experimental evidence, which supports a role of DAGL-α in short-term synaptic plasticity, has been obtained through the use of genetically engineered mice that constitutively lack DAGL-α. DSI was absent in these DAGL-α knock-out mice, but not in their DAGL-β knock-out counter parts.
Horizontal slices (300 µm) of the hippocampus were obtained from male C57BL/6 mice (Harlan, the Netherlands) aged 14-19 days postnatal. Experiments were approved by the animal welfare committee of the University of Amsterdam. […] Inhibitory postsynaptic currents (IPSCs) were evoked with a glass stimulus electrode (filled with ACSF) positioned in the stratum radiatum, close to the recorded neuron. […]
Stock solutions (10 mM) of LEI105 were made in dimethylsulfoxide (DMSO), which was diluted to the final concentration (10 µM) in ACSF. […] Control experiments were performed on neurons recorded in slices pre-incubated with and in the continuous presence of 0.1 % DMSO.
For each CA1 neuron IPSCs were evoked with 5 sec intervals during a 2-min baseline period, prior to the stimulus evoking depolarization-induced suppression of inhibition (DSI). The maximum amplitude of each IPSC was determined and the mean value of the IPCS amplitudes over this period was calculated and used to normalize the evoked synaptic response. […]

The next assay addresses T1, hDAGL-α (Homo sapiens, UniProt Q9Y4D2).
T1 sequence (Q9Y4D2 1-1042): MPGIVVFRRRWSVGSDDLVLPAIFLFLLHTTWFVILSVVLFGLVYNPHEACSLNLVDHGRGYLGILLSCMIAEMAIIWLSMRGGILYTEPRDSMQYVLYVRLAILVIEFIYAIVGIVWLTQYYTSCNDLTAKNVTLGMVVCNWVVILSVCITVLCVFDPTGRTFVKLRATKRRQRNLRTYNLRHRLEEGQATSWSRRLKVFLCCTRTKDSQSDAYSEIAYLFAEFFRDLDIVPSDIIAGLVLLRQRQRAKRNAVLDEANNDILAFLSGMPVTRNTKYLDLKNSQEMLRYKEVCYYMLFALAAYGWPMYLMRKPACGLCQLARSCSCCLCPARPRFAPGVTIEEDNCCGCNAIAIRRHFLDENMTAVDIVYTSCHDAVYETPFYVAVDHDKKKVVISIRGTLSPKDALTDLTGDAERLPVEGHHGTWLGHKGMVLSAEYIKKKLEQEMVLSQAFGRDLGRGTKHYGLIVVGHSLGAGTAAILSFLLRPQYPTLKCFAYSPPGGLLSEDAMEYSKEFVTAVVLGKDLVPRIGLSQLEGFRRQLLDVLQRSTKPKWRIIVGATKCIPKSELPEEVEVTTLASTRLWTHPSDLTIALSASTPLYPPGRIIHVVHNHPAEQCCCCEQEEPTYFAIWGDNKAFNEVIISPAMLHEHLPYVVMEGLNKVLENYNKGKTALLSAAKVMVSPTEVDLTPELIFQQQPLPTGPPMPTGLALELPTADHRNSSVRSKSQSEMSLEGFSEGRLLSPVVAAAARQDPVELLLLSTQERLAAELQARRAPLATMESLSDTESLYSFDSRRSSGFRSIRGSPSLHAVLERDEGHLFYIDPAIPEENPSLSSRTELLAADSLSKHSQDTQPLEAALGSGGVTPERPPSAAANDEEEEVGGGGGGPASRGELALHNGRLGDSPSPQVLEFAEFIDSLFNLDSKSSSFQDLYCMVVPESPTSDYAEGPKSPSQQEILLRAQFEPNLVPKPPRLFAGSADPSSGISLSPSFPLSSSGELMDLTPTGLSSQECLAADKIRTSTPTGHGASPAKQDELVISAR
Description: Mode of action (reversibility) experiment: size exclusion chromatography, then MB064 labeling. It is filed as biochemical. More on the design: expressed in transfected cells. As to conditions: pre-incubation at IC80 concentration; remaining activity visualized with MB064; n=3. As for the experimental part:
To determine the mode of action (reversible versus irreversible) of the inventive compounds, an experiment in which human DAGL-α membranes were pre-incubated at the IC80 concentration of compound 25 or the irreversible DAGL inhibitor KT-109 was performed.
Background: In gel filtration, larger molecules generally elute earlier.

Turning to `Cc1ccc(-c2cnc3nc(C(=O)CCCCCc4ccccc4)oc3c2)cc1` [Compound 25, 1-(6-(p-Tolyl)oxazolo[4,5-b]pyridin-2-yl)-6-phenylhexan-1-one], the DSI entry in the assay with CA1 pyramidal neurons is recorded as “clear suppression of DSI; also recorded: DSI is reduced”. Besides, the “recovery of DAGL-α activity after size exclusion chromatography” value on hDAGL-α was “reversibility”.
